# Measurements published in article PMC8546428, “Convergent olfactory trace amine-associated receptors detect biogenic polyamines with distinct motifs via a conserved binding site” (The Journal of Biological Chemistry, 2021).
# Numbering of substitutions follows the chain as printed.
# How the values were obtained:
# [1] = molecular target: T1, sTAAR365 W7.40Y (Petromyzon marinus, UniProt A0A678XMK4, W296Y); experiment: cell-based
# T1 sequence (A0A678XMK4 1-365 W296Y): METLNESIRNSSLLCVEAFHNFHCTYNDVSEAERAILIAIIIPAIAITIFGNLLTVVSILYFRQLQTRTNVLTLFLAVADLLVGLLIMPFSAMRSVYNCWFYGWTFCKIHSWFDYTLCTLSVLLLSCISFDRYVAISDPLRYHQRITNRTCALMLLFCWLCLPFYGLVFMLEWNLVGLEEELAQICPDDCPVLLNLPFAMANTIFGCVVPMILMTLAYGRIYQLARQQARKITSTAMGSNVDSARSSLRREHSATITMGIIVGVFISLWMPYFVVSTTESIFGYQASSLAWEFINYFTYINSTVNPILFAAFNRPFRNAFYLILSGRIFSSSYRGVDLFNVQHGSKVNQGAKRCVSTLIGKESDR
# [2] = molecular target: T2, sTAAR365 Y6.51F (Petromyzon marinus, UniProt A0A678XMK4, Y272F); experiment: cell-based
# T2 sequence (A0A678XMK4 1-365 Y272F): T1 sequence (A0A678XMK4 1-365 W296Y) with Y272F, Y296W
# [3] = molecular target: T3, sTAAR365 E7.36D (Petromyzon marinus, UniProt A0A678XMK4, E292D); experiment: cell-based
# T3 sequence (A0A678XMK4 1-365 E292D): T1 sequence (A0A678XMK4 1-365 W296Y) with E292D, Y296W
# [4] = molecular target: T4, sTAAR365 E7.36A (Petromyzon marinus, UniProt A0A678XMK4, E292A); experiment: cell-based
# T4 sequence (A0A678XMK4 1-365 E292A): T1 sequence (A0A678XMK4 1-365 W296Y) with E292A, Y296W
# [5] = molecular target: T5, WT sTAAR365 (Petromyzon marinus, UniProt A0A678XMK4); experiment: cAMP TR-FRET assay, wild-type sTAAR365 in HEK293T; type: cell-based, sea lamprey; conditions: for activation of sTAAR365 (cAMP accumulation): ligand 1 mM, HEK293T, Fig. 2A
# T5 sequence (A0A678XMK4 1-365): T1 sequence (A0A678XMK4 1-365 W296Y) with Y296W
# Method: HEK293T cells were transfected with sea lamprey sTAAR365 for 24 h and assayed for Golf-mediated cAMP production with a TR-FRET assay at 30 min after ligand addition. Receptor activity was normalized to the cAMP level in buffer-treated cells (mean ± S.D., n = 3). A, HEK293T cells expressing sTAAR365 or mock plasmid were incubated with either vehicle or tested ligands (1 mM). […] B, concentration-dependent cAMP production of HEK293T cells expressing sTAAR365 stimulated with cadaverine, putrescine, and spermine.
smiles,measurement,setting,value
NCCCCCN [cadaverine],EC50,[1],0.127 ± 0.041 µM
same,EC50,[2],1.7 ± 0.9 µM
same,EC50,[3],0.007 ± 0.002 µM
same,EC50,[4],0.05 ± 0.02 µM
same,EC50,[5],0.004 µM
same,"difference in potency, cadaverine vs putrescine",[5]; WT sTAAR365,1000 fold
same,response threshold,"[5]; WT sTAAR365, cAMP production",~100 pM
same,activation of sTAAR365 (cAMP accumulation),[5],activated
NCCCCN [putrescine],EC50,[1],> 500 µM
same,EC50,[2],> 500 µM
same,EC50,[3],72 ± 14 µM
same,EC50,[4],420 ± 87 µM
same,EC50,[5],56 µM
same,activation of sTAAR365 (cAMP accumulation),[5],activated
NCCCNCCCCNCCCN [spermine],EC50,[1],530 ± 259 µM
same,EC50,[2],114 ± 20 µM
same,EC50,[3],> 500 µM
same,EC50,[4],> 500 µM
same,EC50,[5],28 µM
same,maximal response (Emax) relative to cadaverine/putrescine,"[5]; WT sTAAR365, cAMP production",one-third
same,activation of sTAAR365 (cAMP accumulation),[5],activated
